{"source": "patent US20080274121A1", "about": "“Inhibition of Angiogenesis by Mithramycin” (priority 2007, published 2008)", "key": {"PANC-1 cells": {"system": "PANC-1 cells", "assay": "PANC-1 cells injected into the pancreas, survival and metastasis", "type": "in vivo, nude mice", "details": "BVZ 25 μg, MIT 0.10 mg/kg, or B+M; compared with PBS", "description": "FIG. 12. Prolonged survival of mice that received treatment with BVZ and MIT in xenograft models of human pancreatic cancer. PANC-1 cells were injected into the pancreas of nude mice (17 to 20 mice/group). The mice received treatment as described in FIG. 2. The entire experiment was terminated 120 days after tumor-cell injection. A, animal survival was monitored daily until termination of the experiment. Cum, cumulative. B, tumor growth in the pancreas and metastasis in the liver and/or other organs were evaluated and expressed as the incidence (%).\nStatistical analysis. Each experiment was performed independently at least twice with similar results; one representative experiment is presented. The significance of the in vitro data was determined using Student's t-test (two-tailed), whereas the significance of the in vivo data was determined using the two-tailed Mann-Whitney U test. For the in vivo experiments, overall survival was calculated by the method of Kaplan and Meier. Log rank test was used to compare the survival duration between groups. P≦0.05 was deemed significant.\nProlonged survival of xenograft models of human pancreatic cancer that received treatment with BVZ and MIT."}, "[1]": {"system": "Sp1, EGFR, and VEGF protein expression", "assay": "Western blot of gene expression in PANC-1 cells in vitro", "type": "cell-based, human", "details": "100 μg/ml BVZ, 6 to 48 hours", "description": "FIG. 14. Effects of treatment with BVZ and MIT on the growth of and gene expression in human pancreatic cancer cells in vitro. (A) BxPC3 and (B) PANC-1 cells were incubated for 1 to 5 days in a medium alone or a medium containing 100 μg/ml BVZ. The viable cells were counted every 24 hours. C, PANC-1 cells were incubated for 6 to 48 hours in a medium alone or a medium containing 100 μg/ml BVZ. Total protein lysates were harvested from the cell cultures, and the level of Sp1, EGFR, and VEGF protein expression was determined using Western blot analysis. Equal protein-sample loading was monitored by probing the same membrane filter with an anti-glyceraldehyde-3-phosphate dehydrogenase antibody (GAPDH). […] (D) Cytotoxicity was assessed using the MTT assay, and (E) the level of gene expression was determined using Western blot analysis. NS, nonspecific.\nWestern blot analysis. Whole-cell lysates were prepared from human pancreatic cancer cell lines and tissues (23). […] Equal protein-sample loading was monitored by probing the same membrane filter with antibodies against anti-β-actin or glyceraldehyde-3-phosphate dehydrogenase (GAPDH) (23). The probe proteins were detected using the Amersham enhanced chemiluminescence system according to the manufacturer's instructions. […]"}, "[2]": {"system": "Sp1 recruitment into the Sp1 promoter", "assay": "ChIP assay, tumors formed by PANC-1 cells in nude mice", "type": "in vivo", "details": "tumors from treated mice (BVZ, MIT, B+M)", "description": "FIG. 15. Effects of treatment with BVZ and MIT on Sp1 recruitment into the Sp1 promoter in human pancreatic cancer cells in vitro and in vivo. A, schematic structures of the minimal Sp1 promoters. The nucleotide positions and sequences of Sp1-binding sites and polymerase chain reaction forward and reverse primers flanking those sites for ChIP assay are shown. B, Sp1 and VEGF promoter reporter constructs were transfected into PANC-1 cells in triplicate and incubated for 12 hours. The cells were then incubated for another 24 hours in a medium alone or a medium containing 100 μg/ml BVZ or 0.1 μM MIT. Total protein lysates were harvested from the cell cultures for measurement of Sp1 and VEGF promoter activity using a luciferase assay kit. The relative Sp1 and VEGF promoter activities were assessed, and the activity in treated groups was expressed as the fold change of that in their respective control groups. C and D, chromatin was extracted from (C) PANC-1 cells that were incubated in vitro for 2 days in a medium alone or a medium containing 100 μg/ml BVZ or 0.1 μM MIT and (D) tumors formed by PANC-1 cells in nude mice that received treatment as described in FIG. 2A. […]"}, "[3]": {"assay": "H727 carcinoid subcutaneous xenograft", "details": "BVZ; abstract does not name the model", "experimental": "(§1) H727 carcinoid tumor volume during treatment course in nude mouse xenograft model for various doses and administration routes of mithramycin.\n(§2) H727 and BON-1 cells were injected into the subcutis of nude mice (n=5). When tumors reached around 4 mm in diameter, the animals received different doses of MIT (0.10 [M-10], 0.20 [M-20], and 0.40 [M-40] mg/kg) via intraperitoneal injection twice a week. Tumors were measured once every week, and at each measurement, the mean±standard deviation (SD) tumor volume in the five mice in each group was calculated (A). […] This was one representative experiment of two with similar results.\n(§3) H727 and BON-1 cells were injected subcutaneously into nude mice. […] A. Tumors were measured once every week, and at each measurement, the mean±SD tumor volume in the five mice in each group was calculated. B. Mouse body weights were measured. The asterisks indicate the statistical significance (P<0.01) in a comparison between the treated and respective control groups. This was one representative experiment of two with similar results.\n(§4) H727 carcinoid cells were injected into the subcutis of groups of mice (n=5). When tumors reached 4 mm in diameter, animals received injections of PBS (controls), MIT (0.10, 0.20, or 0.40 mg/kg (s.c. or i.p.) twice a week. Tumors were measured once every week, and at each measurement, the mean±SD tumor volume in the five mice in each group was calculated.\n(§5) Mithramycin-A (MIT, 1 mg/vial crystal powder; lot 055K4011) was purchased from Sigma Chemical Co. (St. Louis, Mo.) and diluted in sterile water. BVZ (25 mg/ml; NDC 50242-060-01) from Genentech, Inc. (South San Francisco, Calif.) was purchased. For animal experiments, MIT (0.1 to 0.4 mg/kg body weight) and BVZ (25 to 100 μg/mouse) were administered by intraperitoneal or subcutaneous injections twice a week or as otherwise stated.\n(§6) Female athymic BALB/c nude mice were purchased from The Jackson Laboratory (Bar Harbor, Me.). The mice were housed in laminar flow cabinets under specific pathogen-free conditions and used when they were 8 weeks old.\n(§7) H727 and BON-1 tumor cells were injected into the subcutis of mice as described in the Materials and Methods. MIT treatment started when tumor sizes reached around 3-4 mm in diameters. […] Moreover, the residual tumors were harvested and angiogenesis was assessed by CD31 staining.\n(§8) Specifically, we injected H727 and BON-1 cells subcutaneously into nude mice. […] We also administered PBS injections to animals as controls.\n(§9) H727 and BON-1 cells were injected subcutaneously into nude mice and then administered treatment to them as described in FIG. 20."}, "H727 cells": {"system": "H727 cells", "assay": "H727 carcinoid subcutaneous xenograft", "experimental": "as §1, §2, §3, §4, §5, §6, §7, §8, §9"}}}
{"substance": "bevacizumab [BVZ]", "values": [{"measurement": "animal survival", "setting": "PANC-1 cells", "value": "slightly increased survival rate"}, {"measurement": "expression of Sp1, VEGF and EGFR", "setting": "[1]", "value": "did not affect the expression of Sp1 or its major downstream molecules"}, {"measurement": "Sp1 recruitment to its own promoter", "setting": "[2]", "value": "significantly increase Sp1 recruitment to its own promoter"}, {"measurement": "human neuroendocrine tumor growth", "setting": "[3]", "value": "suppressed human neuroendocrine tumor growth in nude mice in a dose-dependent manner"}, {"measurement": "antitumor activity at low dose", "setting": "H727 cells; BVZ 25 μg, MIT 0.10 mg/kg, alone or combined, i.p. twice a week", "value": "marginal antitumor activity"}, {"measurement": "body weight", "setting": "H727 cells; BVZ alone", "value": "no discernable effects on body weight"}, {"measurement": "animal survival", "setting": "H727 cells; compared with PBS, 160 days", "value": "slightly increased survival rate"}]}
